Results on 20 compounds are retold here after patent US9975854B2, “Benzomorphan analogs and use thereof” (Purdue Pharma L.P., priority 2014, dated 2018).

In this assay the target is μ-opioid receptor (Homo sapiens (Human), UniProt P35372). Kind of assay: μ-opioid receptor [35S]GTPγS functional assay, HEK-293 or CHO cells. It is filed as biochemical. The settings on record: HEK-293 or CHO cells; for EC50: read-out: GTPγS μ EC50; for Emax: relative to DAMGO. The procedure: [^35S]GTPγS functional assays were conducted using freshly thawed μ-receptor membranes prepared in-house from a cell line expressing recombinant opioid receptor in a HEK-293, CHO or U-2 OS cell background, or purchased from a commercial source (Perkin Elmer, Shelton, Conn.; or DiscovRx, Fremont, Calif.). Assay reactions were prepared by sequentially adding the following reagents to binding buffer (100 mM NaCl, 10 mM MgCl2, 20 mM HEPES, pH 7.4) on ice (final concentrations indicated): membrane protein (0.026 mg/mL), saponin ([…]), GDP ([…]) and [^35S]GTPγS (0.20 nM; Perkin Elmer, Shelton, Conn.). The prepared membrane solution (190 μl/well) was transferred to 96-shallow well polypropylene plates containing 10 μl of 20× concentrated stock solutions of the agonist [D-Ala^2, N-methyl-Phe^4 Gly-ol^5]-enkephalin (DAMGO) prepared in dimethyl sulfoxide (DMSO). Plates were incubated for 30 min at about 25° C. with shaking. Reactions were terminated by rapid filtration onto 96-well Unifilter GF/B filter plates (Perkin Elmer, Shelton, Conn.) using a 96-well tissue harvester (Perkin Elmer, Shelton, Conn.) followed by three filtration washes with 200 μl of ice-cold wash buffer (10 mM NaH2PO4, 10 mM Na2HPO4, pH 7.4). Filter plates were subsequently dried at 50° C. for 2-3 hr. BetaScint scintillation cocktail (Perkin Elmer, Shelton, Conn.) was added (50 μl/well) and plates were counted using a Packard Top-Count for 1 min/well. Data were analyzed using the sigmoidal dose-response curve fitting functions in GraphPad PRISM v. 3.0, or an in-house function for non-linear, sigmoidal dose-response curve-fitting.
μ GTP EC50 is the concentration of a compound providing 50% of the maximal response for the compound at a μ-opioid receptor.
μ GTP Emax (%) is the maximal effect elicited by a compound relative to the effect elicited by DAMGO, a standard p agonist. Generally, the μ GTP Emax (%) value measures the efficacy of a compound to treat or prevent pain or other Conditions.
In TABLE 4, activity response of certain Compounds of the Invention to the μ- and κ-opioid receptors was determined as described above for functional assays using HEK-293 or CHO cells.

Where two headings read alike, the source gives them in different places.

A word on the EC50: it is the concentration at which the effect is half-maximal. What is called Emax is the maximal effect, on the per cent scale that the assay sets. Consider `CN1CC[C@@]2(C)c3cc(C(N)=O)ccc3C[C@@H]1[C@H]2N(C)C(=O)Nc1ccc(C#N)cc1` [Compound 120, (2R,6S,11S)-11-(3-(4-cyanophenyl)-1-methylureido)-3,6-dimethyl-1,2,3,4,5,6-hexahydro-2,6-methanobenzo[d]azocine-8-carboxamide], for which the Emax was -0.33 ± 0.67%. In addition, the EC50 (bound given in uM) was > 20 µM.

Regarding `CCn1c(NC(=O)N(C)[C@H]2[C@H]3Cc4ccc(O)cc4[C@]2(C)CCN3C)nc2ccccc21` [Compound 112, 3-(1-ethyl-1H-benzo[d]imidazol-2-yl)-1-((2R,6S,11R)-8-hydroxy-3,6-dimethyl-1,2,3,4,5,6-hexahydro-2,6-methanobenzo[d]azocin-11-yl)-1-methylurea], the concentration giving a half-maximal response (EC50) amounted to 0.0141 ± 0.00052 µM and the Emax came out at 84.2 ± 0.94%.

For the compound `CCN(C(=O)Nc1ccc(C#N)cc1)[C@H]1[C@H]2Cc3ccc(O)cc3[C@]1(C)CCN2C` [Compound 91, 3-(4-cyanophenyl)-1-ethyl-1-((2R,6S,11R)-8-hydroxy-3,6-dimethyl-1,2,3,4,5,6-hexahydro-2,6-methanobenzo[d]azocin-11-yl)urea], the EC50 stood at 0.0463 ± 0.0041 µM and the Emax was 75.3 ± 2.19%.

`CN1CC[C@@]2(C)c3cc(O)ccc3C[C@@H]1[C@@H]2N(C)CC1CCN(S(C)(=O)=O)CC1` [Compound 54, (2R,6S,11R)-3,6-dimethyl-11-(methyl((1-(methylsulfonyl)piperidin-4-yl)methyl)amino)-1,2,3,4,5,6-hexahydro-2,6-methanobenzo[d]azocin-8-ol]: the EC50 amounted to 0.00544 ± 0.00235 µM and the Emax amounted to 74 ± 3.15%.

Turning to `CCN(C(=O)Nc1ccc(C#N)cc1)[C@@H]1[C@H]2Cc3ccc(O)cc3[C@]1(C)CCN2C` [Compound 93, 3-(4-cyanophenyl)-1-ethyl-1-((2R,6S,11 S)-8-hydroxy-3,6-dimethyl-1,2,3,4,5,6-hexahydro-2,6-methanobenzo[d]azocin-11-yl)urea], the EC50 was determined as 2.29 ± 0.404 µM and the Emax stood at 32 ± 2.48%.

For the compound `CN1CCC2(C)c3cc(O)ccc3C[C@@H]1C2NC(=O)/C=C/c1ccoc1` (stereo in doubt) [Compound 32, (E)-3-(furan-3-yl)-N-((2R,6S,11S)-8-hydroxy-3,6-dimethyl-1,2,3,4,5,6-hexahydro-2,6-methanobenzo[d]azocin-11-yl)acrylamide], the Emax is 2.33 ± 0.88%. The EC50 (bound given in uM) is > 20 µM.

Regarding `CN1CC[C@@]2(C)c3cc(O)ccc3C[C@@H]1[C@H]2NCCc1ccc(S(C)(=O)=O)cc1` [Compound 11, (2R,6S,11S)-3,6-dimethyl-11-((4-(methylsulfonyl)phenethyl)amino)-1,2,3,4,5,6-hexahydro-2,6-methanobenzo[d]azocin-8-ol], the EC50 was determined as 0.0356 ± 0.0059 µM and the Emax was 16.7 ± 0.33%.

For `CN1CC[C@@]2(C)c3cc(O)ccc3C[C@@H]1[C@@H]2NC(=O)Cc1ccc(S(C)(=O)=O)cc1` [Compound 33, N-((2R,6S,11R)-8-hydroxy-3,6-dimethyl-1,2,3,4,5,6-hexahydro-2,6-methanobenzo[d]azocin-11-yl)-2-(4-(methylsulfonyl)phenyl)acetamide], the half-maximal effective concentration (EC50) was determined as 5.28 ± 1.26 µM and the Emax worked out at 13%.

`CN1CC[C@@]2(C)c3cc(C(N)=O)ccc3C[C@@H]1[C@H]2NCCc1ccccc1` [Compound 115, (2R,6S,11S)-3,6-dimethyl-11-(phenethylamino)-1,2,3,4,5,6-hexahydro-2,6-methanobenzo[d]azocine-8-carboxamide]: the EC50 was 0.525 ± 0.0263 µM and the Emax came out at 83.4 ± 1.58%.

Regarding `CN1CC[C@@]2(C)c3cc(O)ccc3C[C@@H]1[C@@H]2NC(=O)Nc1ccc(C#N)cc1` [Compound 27, 1-(4-Cyanophenyl)-3-((2R,6S,11R)-8-hydroxy-3,6-dimethyl-1,2,3,4,5,6-hexahydro-2,6-methanobenzo[d]azocin-11-yl)urea], the Emax was 0%. Besides, the EC50 (bound given in uM) is > 20 µM.

For the compound `CN1CC[C@]2(C)c3cc(O)ccc3CC1[C@@H]2C(=O)N1CCCCC1` [Compound 106, ((6S,11R)-8-hydroxy-3,6-dimethyl-1,2,3,4,5,6-hexahydro-2,6-methanobenzo[d]azocin-11-yl)(piperidin-1-yl)methanone], the EC50 worked out at 4.09 ± 0.334 µM and the Emax was determined as 49 ± 1.73%.

Consider `CN1CCC2(C)c3cc(O)ccc3C[C@@H]1C2NS(=O)(=O)Cc1ccccc1` (stereo in doubt) [Compound 101, N-((2R,6S,11S)-8-hydroxy-3,6-dimethyl-1,2,3,4,5,6-hexahydro-2,6-methanobenzo[d]azocin-11-yl)-1-phenylmethanesulfonamide], for which the Emax turned out to be 6 ± 4.06%. The EC50 (bound given in uM) is > 20 µM.

For the compound `CN1CC[C@@]2(C)c3cc(O)ccc3C[C@@H]1[C@H]2NC(=O)Nc1nc2cc(F)ccc2s1` [Compound 122, 1-(5-Fluorobenzo[d]thiazol-2-yl)-3-((2R,6S,11S)-8-hydroxy-3,6-dimethyl-1,2,3,4,5,6-hexahydro-2,6-methanobenzo[d]azocin-11-yl)urea], the 50% effective concentration (EC50) was 0.375 ± 0.106 µM and the Emax came out at 13.6 ± 1.14%.

For the compound `CN1CC[C@@]2(C)c3cc(O)ccc3C[C@@H]1[C@H]2NCCCc1ccccc1` [Compound 109, (2R,6S,11S)-3,6-dimethyl-11-((3-phenylpropyl)amino)-1,2,3,4,5,6-hexahydro-2,6-methanobenzo-[d]azocin-8-ol], the EC50 stood at 0.649 ± 0.114 µM and the Emax came out at 59.6 ± 2.5%.

As for `CN1CC[C@@]2(C)c3cc(C(N)=O)ccc3C[C@@H]1[C@@H]2N(C)CCc1ccccc1` [Compound 123, (2R,6S,11R)-3,6-dimethyl-11-(methyl(phenethyl)amino)-1,2,3,4,5,6-hexahydro-2,6-methanobenzo[d]azocine-8-carboxamide], the half-maximal effective concentration (EC50) turned out to be 0.0233 ± 0.00447 µM and the Emax is 97.4 ± 0.2%.

For `CN1CC[C@@]2(C)c3cc(O)ccc3C[C@@H]1[C@H]2N(C)C(=O)Nc1nc2cc(F)ccc2s1` [Compound 82, 3-(5-fluorobenzo[d]thiazol-2-yl)-1-((2R,6S,11S)-8-hydroxy-3,6-dimethyl-1,2,3,4,5,6-hexahydro-2,6-methanobenzo[d]azocin-11-yl)-1-methylurea], the Emax is 1%. Moreover, the EC50 (bound given in uM) was > 20 µM.

As for `CCN(CCc1ccc(S(C)(=O)=O)cc1)[C@H]1[C@H]2Cc3ccc(O)cc3[C@]1(C)CCN2C` [Compound 98, (2R,6S,11R)-11-(ethyl(4-(methylsulfonyl)phenethyl)amino)-3,6-dimethyl-1,2,3,4,5,6-hexahydro-2,6-methanobenzo[d]azocin-8-ol], the concentration for a half-maximal effect (EC50) worked out at 0.00064 ± 8.2e-05 µM and the Emax was found to be 44.6 ± 0.6%.

On to `CN1CC[C@@]2(C)c3cc(O)ccc3C[C@@H]1[C@@H]2N(C)C(=O)Nc1nc2ccc(F)cc2s1` [Compound 81, 3-(6-fluorobenzo[d]thiazol-2-yl)-1-((2R,6S,11R)-8-hydroxy-3,6-dimethyl-1,2,3,4,5,6-hexahydro-2,6-methanobenzo[d]azocin-11-yl)-1-methylurea], for which the Emax is -1%. Under “bound given in uM”, the EC50 was > 20 µM.

`CN1CCC2(C)c3cc(O)ccc3C[C@@H]1C2NC(=O)Cc1ccccc1` (stereo in doubt) [Compound 29, N-((2R,6S,11S)-8-hydroxy-3,6-dimethyl-1,2,3,4,5,6-hexahydro-2,6-methanobenzo[d]azocin-11-yl)-2-phenylacetamide]: the Emax was 1%. Where the note is “bound given in uM”, the half-maximal effective concentration (EC50) is > 20 µM.

For the compound `CCn1c(NC(=O)N(C)[C@H]2[C@H]3Cc4ccc(OC)cc4[C@]2(C)CCN3C)nc2ccccc21` [Compound 110, 3-(1-Ethyl-1H-benzo[d]imidazol-2-yl)-1-((2R,6S,11R)-8-methoxy-3,6-dimethyl-1,2,3,4,5,6-hexahydro-2,6-methanobenzo[d]azocin-11-yl)-1-methylurea], the half-maximal effective concentration (EC50) was found to be 0.851 ± 0.161 µM and the Emax turned out to be 89.2 ± 6.05%.
